Experimental data: patent USRE39096E1, “Treatment of skin disorders” (Hadasit Medical Research Services and Development Company …, priority 1997, dated 2006)
Several values for one entry are separate records, joined by “and”; a condition that tells them apart may be missing. Equal entries are not always repeated. Where two headings read alike, the source gives them in different places.

What was measured:
[1] = test system: bovine corneal endothelial cells; experiment: Viability and morphology of confluent corneal endothelial cell monolayer; format: cell-based; details: growth arrested monolayer
Excerpt: (§1) As noted above, skin cell hyperproliferation is enabled by the deposition of ECM components. The following examples illustrate the ability of Halofuginone to inhibit such deposition of ECM components, further supporting the use of Halofuginone as a treatment for psoriasis. These examples illustrate the unexpected finding that Halofuginone completely abolishes deposition of all ECM components, and not just collagen, thereby preventing cell proliferation which is enabled by the formation of ECM. Cultures of bovine corneal endothelial cells were established from steer eyes and maintained as previously described [D. Gospodarowicz, et al., Exp. Eye Res., No. 25, pp. 75-99 (1977)]. Cells were cultured at 37° C. in 10% CO2 humidified incubators and the experiments were performed with early (3-8) cell passages.
(§2) For preparation of sulfate-labelled ECM (extra-cellular matrix), corneal endothelial cells were seeded into Swell plates at a confluent density forming, within 4-6 h, a contact inhibited cell monolayer composed of closely apposed, and growth arrested cells. […] To determine the total amount of sulfate labeled material, the ECM was digested with trypsin (25 μg/ml 24 h, 37° C.) and the solubilized material counted in a β-counter.

rats = experiment: Post-surgical abdominal adhesion formation in rats, Halofuginone in diet as pretreatment; format: in vivo, rat
Experimental: The experimental method was as follows. Halofuginone was administered in the diet of two groups of rats at a concentration of 5 mg/kg dry feed for 4 days before surgery, as a pretreatment. Two other groups of rats were fed a normal diet and served as control groups. One of the groups of rats fed Halofuginone and one control group then underwent surgery, which was performed as follows. First, the abdomen of the rats was shaved and prepared with iodine and alcohol. The abdominal cavity was entered through a mid-line incision. The small intestine was scraped from the duodenum down to from about 9 to about 10 cm from the cecum, until capillary bleeding occurred. To avoid drying, Hartman's solution at about 37 C. was occasionally dripped on the intestine. After replacement of the intestine into the abdominal cavity, the abdomen was closed in two layers with continuous 00 chromic catgut suture.
In those rats receiving the drug, Halofuginone treatment was continued for 21 days following surgery. At the end of 21 days, the rats were weighed and the number and severity of adhesions were determined according to a double-blind procedure, in which adhesions were classified according to the following grading: 0=no adhesions; I=a thin, filmy, easily separated adhesion; II=several thin adhesions; III=a thick, broad adhesion and IV=several thick adhesions. Clearly, 0 is the least severe and IV is the most severe grade.

keloid-derived cells = experiment: Collagen synthesis in keloid-derived cells ([3H]proline incorporation, collagenase digestion); format: cell-based, human; details: 24 hours incubation, FIG. 2
Experimental: A keloid, which had arisen in response to the piercing of the ear for insertion of an earring, was removed from the ear lobe of a person. The keloid tissue was sectioned so that histological studies could be performed. Briefly, the tissue samples were collected into phosphate-buffered saline (PBS) and fixed overnight in 4% paraformaldehyde in PBS at 4° C. Serial 5 um sections were prepared after the samples had been dehydrated in graded ethanol solutions, cleared in chloroform and embedded in Paraplast. Differential staining of collagenous and non-collagenous proteins was performed with 0.1% Sirius red and 0.1% fast green as a counter-stain in picric acid. This procedure stains collagen red [Gascon-Barre, M., et al., J. Histochem. Cytochem., Vol 37, p. 377-381, 1989].
The keloid was removed as described in Example 1 above. The keloid-derived cells were incubated with and without Halofuginone for 24 hours in 0.5 ml glutamine-free DMEM containing 5% FCS (Fetal Calf Serum), ascorbic acid (50 μg/ml), B-aminopropionitrile (50 μg/ml) and 2 μCi of [^3H]proline. At the end of incubation, the medium was decanted and the cells were incubated with or without collagenase for 18 hours, followed by precipitation of proteins by the addition of TCA (trichloroacetic acid). […]

[2] = test system: bovine corneal endothelial cells; experiment: Incorporation of sulfate, proline, lysine and glycine into ECM of bovine corneal endothelial cells; format: cell-based; details: eight days after seeding
Experimental: Corneal endothelial cells were seeded at a confluent density and grown as described in Example 3 above. The cells were cultured with or without Halofuginone in the presence of either Na2^35SO4 (FIG. 4A), ^3H-proline (FIG. 4B), ^14C-lysine (FIG. 4C) or ^14C-glycine (FIG. 4D). Eight days after seeding, the cell layer was dissolved substantially as described in Example 3 above. The underlying ECM was then either trypsinized to determine the effect of Halofuginone on incorporation of labeled material into total protein, substantially as described in Example 3 above, or subjected to sequential digestions with collagenase and trypsin to evaluate the effect of Halofuginone on both collagenase-digestible proteins (CDP) and non-collagenase digestible proteins (NCDP).

[3] = test system: bovine corneal endothelial cells; experiment: Sulfate incorporation into ECM of cultured endothelial cells; format: cell-based; details: FIG. 3
Excerpt: as §1, §2

Rat mesengial cells = experiment: Sulfate and glycine incorporation into rat mesengial cell ECM; format: cell-based; details: for inhibition at 0.05 µg/mL / inhibition at 0.2 µg/mL: Rattus norvegicus; for inhibition at 0.05 µg/mL: 50 ng/ml Halofuginone; for inhibition at 0.2 µg/mL: 200 ng/ml Halofuginone
Experimental: Rat […] grown to confluency, 24 hours after seeding. The cells were then cultured with or without Halofuginone in the presence of either Na2^35SO4 (FIGS. 5A and 5B) or ^14C-glycine (FIGS. 5C and 5D). Eight days after seeding, the cell layer was dissolved to expose the underlying ECM, washed and digested with collagenase to determine the effect of Halofuginone on CDP proteins, as shown in FIGS. 5A and 5C. The remaining material was digested with trypsin and subjected to β-scintillation counting to determine the effect of Halofuginone on NCDP proteins, as shown in FIGS 5B and 5D.

O=C(CC1NCCCC1O)Cn1cnc2cc(Br)c(Cl)cc2c1=O (centres unmarked) [Halofuginone]
concentration up to which cells remained viable and retained normal monolayer configuration and morphological appearance [1]: ≤ 2 μg/ml
Adhesion Score (rats; individual rats, Group Number 2 (taken as surgery + Halofuginone 5 mg/kg dry feed, 4 days before and 21 days after surgery)): 0-1 (3×) and 0 (3×) and 1 (2×) and 1-2 (2×)
adhesions in rats without surgical intervention (rats; no surgery, Halofuginone in diet): None of the rats without surgical intervention
post-surgical adhesion formation (rats; rats with surgery, Halofuginone in diet 5 mg/kg dry feed): able to inhibit post-surgical adhesion formation
production of collagen (collagenase-digestible [3H]proline-labelled proteins) (keloid-derived cells): inhibited the production of collagen
production of non-collagenase digestible proteins (keloid-derived cells): not of non-collagenase digestible proteins
incorporation of proline into ECM ([2]; 3H-proline, both CDP and NCDP, FIG. 4B): inhibited
incorporation of glycine into ECM ([2]; 14C-glycine, both CDP and NCDP, FIG. 4D): inhibited
incorporation of lysine into ECM ([2]; 14C-lysine, both CDP and NCDP, FIG. 4C): inhibited
incorporation of sulfate into ECM ([2]; Na2 35SO4, both CDP and NCDP, FIG. 4A): inhibited
inhibition of sulfate incorporation into ECM ([3]; 1 μg/ml Halofuginone): almost complete inhibition
inhibition at 0.2 µg/mL ([3]; Bos taurus, Endothelial cell, 0.2 μg/ml Halofuginone): 50%
microscopic examination of denuded culture dishes (ECM layer) (Rat mesengial cells; ECM produced in the presence of Halofuginone): thin or non-existant layer of ECM
inhibition at 0.05 µg/mL (Rat mesengial cells; collagenase-digestible proteins, read-out: inhibition of glycine incorporation, CDP proteins): ~80%
inhibition at 0.05 µg/mL (Rat mesengial cells; non-collagenase digestible proteins, read-out: inhibition of glycine incorporation, NCDP proteins): ~80%
inhibition at 0.2 µg/mL (Rat mesengial cells; collagenase-digestible proteins, read-out: inhibition of sulfate incorporation, CDP proteins): ~30%
inhibition at 0.2 µg/mL (Rat mesengial cells; non-collagenase digestible proteins, read-out: inhibition of sulfate incorporation, NCDP proteins): ~70%
